From ChEMBL document CHEMBL1201862, “PubChem BioAssay data set” (2004) come the findings set out here.

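The compound was tested at five concentrations on cells cultured in 96-well plates, with a 48-hour exposure period. The concentration for 50% growth inhibition is given as GI50.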 The source made the active and inactive calls. Rule as the data show it: active = GI50 up to about 1.1 µM and inactive = higher. Where only a bound is given, the exact number is not on record here.

Test systems include DMS-114; LOX IMVI; SNB-75; SF-539; SN12C; HL-60; M14; 786-0; SF-268; HT-29; NCI-H23; HOP-92; NCI-H460; UACC-62; SF-295; ACHN; IGROV-1; SR.
Test in all cases: DTP human tumour cell line panel, 48 h

The term GI50 denotes the concentration at which growth is held to half of that of the control. For `CC(=O)Nc1ccccc1Sc1ccccc1`, the GI50 with DMS-114 was > 100 µM (inactive); with LOX IMVI it was > 100 µM (inactive); in the assay on SNB-75 it was 39.3 µM (inactive); in the assay with SF-539, > 100 µM (inactive); in the assay on SN12C, > 100 µM (inactive); with HL-60, > 100 µM (inactive). The GI50 in the assay with M14 is > 100 µM (inactive); in the assay with 786-0, > 100 µM (inactive); in the assay with SF-268 it was 72.9 µM (inactive); in the assay on HT-29, > 100 µM (inactive); in the assay on NCI-H23, > 100 µM (inactive); in the assay on HOP-92, 69.8 µM (inactive). The GI50 in the assay on NCI-H460, with UACC-62, with SF-295, in the assay on ACHN and in the assay on IGROV-1 was > 100 µM (inactive) each time.

For `Cc1ccc(C(=O)C(C2=Nc3nnc(N)n3C2=O)C2=Nc3nnc(N)n3C2=O)cc1`, the GI50 in the assay on DMS-114, in the assay on LOX IMVI, in the assay with SNB-75, with SF-539, in the assay on SN12C and in the assay with HL-60 was > 100 µM (inactive) throughout. For the same compound, the GI50 with M14, in the assay with 786-0, in the assay with SF-268, with HT-29, in the assay on NCI-H23 and in the assay on HOP-92 was > 100 µM (inactive) throughout. Moreover, the GI50 in the assay with NCI-H460, in the assay with UACC-62, in the assay with SF-295, in the assay on ACHN and in the assay with IGROV-1 was > 100 µM (inactive) throughout.

On to `CC1(Br)CC2OC3(Br)C=CC(C)(O)C2(CC1=O)C3(C)C` (centres undefined), for which the GI50 in the assay on DMS-114 was > 100 µM (inactive); with LOX IMVI, > 100 µM (inactive); in the assay with SNB-75 it was 64.6 µM (inactive); with SF-539, > 100 µM (inactive); with SN12C it was > 100 µM (inactive); with M14, > 100 µM (inactive). Besides, the GI50 in the assay on 786-0 was > 100 µM (inactive); in the assay with SF-268, > 100 µM (inactive); in the assay on HT-29 it was > 100 µM (inactive); in the assay on NCI-H23, > 100 µM (inactive); in the assay with HOP-92, 64.4 µM (inactive); in the assay on NCI-H460, > 100 µM (inactive). The GI50 was 99.1 µM (inactive) with UACC-62; 82.4 µM (inactive) with SR; > 100 µM (inactive) with SF-295; > 100 µM (inactive) with ACHN; > 100 µM (inactive) with IGROV-1.

For the compound `CCc1cccc(C)c1NC(=O)C(=O)Cc1nc2ccccc2o1`, the GI50 with DMS-114, in the assay on LOX IMVI, in the assay with SF-539, with SN12C, with HL-60 and in the assay with M14 was > 100 µM (inactive) in each case. The GI50 in the assay with 786-0, in the assay with SF-268, in the assay on HT-29, with NCI-H23, with HOP-92 and in the assay with NCI-H460 was > 100 µM (inactive) each time. For the same compound, the GI50 with UACC-62, with SR, in the assay on SF-295, with ACHN and in the assay on IGROV-1 was > 100 µM (inactive) throughout.

For the compound `O=C1O[C@@H](c2ccccc2)C[C@H]1CN1CCOCC1`, the GI50 in the assay with DMS-114 was 67 µM (inactive); with LOX IMVI, > 100 µM (inactive); in the assay with SNB-75, 51.9 µM (inactive); in the assay on SF-539 it was > 100 µM (inactive); in the assay with SN12C it was > 100 µM (inactive); in the assay on HL-60, 24.6 µM (inactive). The GI50 was > 100 µM (inactive) in the assay on M14; 28.2 µM (inactive) in the assay on 786-0; > 100 µM (inactive) with SF-268; > 100 µM (inactive) with HT-29; 17 µM (inactive) in the assay with NCI-H23; > 100 µM (inactive) with HOP-92. Moreover, the GI50 in the assay with NCI-H460, in the assay with UACC-62, in the assay on SF-295, in the assay with ACHN and in the assay on IGROV-1 was > 100 µM (inactive) throughout.

Consider `O=C(Cc1ccccc1)NN1C(=O)C(Cl)C1c1cc(Br)cc(Br)c1O` (centres undefined), for which the GI50 in the assay on DMS-114 is 3.97 µM (inactive); in the assay on LOX IMVI, 9.95 µM (inactive); in the assay on SNB-75, 16.2 µM (inactive); with SN12C, 21.3 µM (inactive); in the assay on HL-60, 2.13 µM (inactive); in the assay with M14 it was 14.8 µM (inactive). Moreover, the GI50 in the assay with 786-0 was 10.1 µM (inactive); in the assay on SF-268, 3.63 µM (inactive); in the assay with HT-29, 21.6 µM (inactive); with NCI-H23, 12.2 µM (inactive); with NCI-H460 it was 3.87 µM (inactive); in the assay on UACC-62, 10.3 µM (inactive). The concentration for 50% growth inhibition (GI50) with SR is 0.794 µM (active); with SF-295 it was 12.3 µM (inactive); in the assay on ACHN, 6.35 µM (inactive); in the assay on IGROV-1, 13.1 µM (inactive).

As to `N#CCCCCCOCCOCCOCCOCCOCCCCCC#N`, the GI50 in the assay with DMS-114, with LOX IMVI, with SNB-75, with SN12C, in the assay on HL-60 and in the assay with M14 was > 100 µM (inactive) each time. The GI50 is > 100 µM (inactive) in the assay on 786-0; > 100 µM (inactive) in the assay on SF-268; > 100 µM (inactive) in the assay with HT-29; > 100 µM (inactive) in the assay with NCI-H23; > 100 µM (inactive) in the assay on NCI-H460; 68.7 µM (inactive) in the assay on UACC-62. In addition, the GI50 with SR, with SF-295, in the assay on ACHN and in the assay on IGROV-1 was > 100 µM (inactive) each time.

For `OC1/C(=C/c2ccccc2)CNC/C1=C\c1ccccc1` (centres undefined), the GI50 in the assay on DMS-114 is > 100 µM (inactive); in the assay on LOX IMVI it was > 100 µM (inactive); with SNB-75 it was 75.7 µM (inactive); with SF-539 it was > 100 µM (inactive); with SN12C, > 100 µM (inactive); with HL-60, 92.7 µM (inactive). Moreover, the GI50 in the assay with M14 is > 100 µM (inactive); in the assay with 786-0, > 100 µM (inactive); in the assay on SF-268 it was > 100 µM (inactive); in the assay on HT-29, 89.7 µM (inactive); in the assay with HOP-92 it was 96.8 µM (inactive); with NCI-H460 it was > 100 µM (inactive). Also, the GI50 in the assay on UACC-62, with SR, in the assay with SF-295, in the assay with ACHN and in the assay on IGROV-1 was > 100 µM (inactive) each time.

As for `CSc1nc(-c2ccccc2)c2c(n1)-c1ccccc1CC2`, the GI50 in the assay with DMS-114, in the assay with LOX IMVI, in the assay on SNB-75, with SN12C, in the assay on HL-60 and in the assay on M14 was > 100 µM (inactive) throughout. The GI50 in the assay on 786-0 is > 100 µM (inactive); with SF-268, > 100 µM (inactive); in the assay with HT-29 it was 52 µM (inactive); in the assay on NCI-H23, > 100 µM (inactive); with HOP-92, > 100 µM (inactive); with NCI-H460, > 100 µM (inactive). The GI50 in the assay with UACC-62, in the assay with SR, in the assay with SF-295 and with IGROV-1 was > 100 µM (inactive) in each case.

Turning to `O=Cc1ccc2c(c1-c1c(C=O)ccc3c1OCO3)OCO2`, the GI50 in the assay with DMS-114, with SNB-75, in the assay with SF-539, in the assay on SN12C, with HL-60 and in the assay on M14 was > 100 µM (inactive) in each case. Moreover, the GI50 in the assay on 786-0, in the assay on SF-268, in the assay on HT-29, in the assay with NCI-H23, in the assay with NCI-H460 and in the assay with UACC-62 was > 100 µM (inactive) each time. The GI50 in the assay with SR, with SF-295, with ACHN and with IGROV-1 was > 100 µM (inactive) throughout.

Take `C#CCC(N)(CO)C(=O)O` (centres undefined): the GI50 with DMS-114 was > 100 µM (inactive); with LOX IMVI, > 100 µM (inactive); in the assay on SNB-75 it was 82.6 µM (inactive); in the assay with SF-539 it was > 100 µM (inactive); in the assay on HL-60 it was > 100 µM (inactive); in the assay with M14 it was > 100 µM (inactive). Also, the GI50 with 786-0, in the assay with SF-268, in the assay with HT-29, in the assay with NCI-H23, in the assay on HOP-92 and with NCI-H460 was > 100 µM (inactive) in each case. For the same compound, the GI50 in the assay with UACC-62, with SR, in the assay with SF-295, in the assay with ACHN and with IGROV-1 was > 100 µM (inactive) in each case.

For `COCC(OC)C(CC=C(C#N)C#N)OC` (centres undefined), the GI50 in the assay on DMS-114, with LOX IMVI, in the assay with SF-539, in the assay with SN12C, with HL-60 and with M14 was > 100 µM (inactive) each time. For the same compound, the GI50 with 786-0, in the assay with SF-268, with HT-29, in the assay on NCI-H23, in the assay on HOP-92 and in the assay with UACC-62 was > 100 µM (inactive) each time. The GI50 in the assay on SR, in the assay on SF-295, in the assay on ACHN and in the assay with IGROV-1 was > 100 µM (inactive) throughout.
